# Data: patent US6706757B2, “Chroman derivatives as 5-hydroxytryptamine-6 ligands” (Wyeth, priority 2001, dated 2004)
# Counter-ions that a name gives are not always drawn.
# Target: T1, human cloned 5-HT6 receptors (Homo sapiens, UniProt P50406)
# T1 construct: expressed in transfected cells; host or cells: HeLa cells (membrane preparation)
# Assay: 5-HT6 binding affinity, [3H]-LSD displacement on membranes of Hela cells expressing human cloned 5-HT6 receptors
# Details: [3H]-LSD 3.0 nM, Hela cell membranes, 120 min at room temperature
# Protocol: The affinity of test compounds for the serotonin 5-HT6 receptor is evaluated in the following manner. Cultured Hela cells expressing human cloned 5-HT6 receptors are harvested and centrifuged at low speed (1,000×g) for 10.0 min to remove the culture media. The harvested cells are suspended in half volume of fresh physiological phosphate buffered saline solution and recentrifuged at the same speed. This operation is repeated. The collected cells are then homogenized in ten volumes of 50 mM Tris.HCl (pH 7.4) and 0.5 mM EDTA. The homogenate is centrifuged at 40,000×g for 30.0 min and the precipitate is collected. The obtained pellet is resuspended in 10 volumes of Tris.HCl buffer and recentrifuged at the same speed. The final pellet is suspended in a small volume of Tris.HCl buffer and the tissue protein content is determined in aliquots of 10-25 μl volumes. Bovine Serum Albumin is used as the standard in the protein determination according to the method described in Lowry et al., J. Biol. Chem., 193:265 (1951). The volume of the suspended cell membranes is adjusted to give a tissue protein concentration of 1.0 mg/ml of suspension. The prepared membrane suspension (10 times concentrated) is aliquoted in 1.0 ml volumes and stored at −70° C. until used in subsequent binding experiments.
# Binding experiments are performed in a 96 well microtiter plate format, in a total volume of 200 μl. […] The test compounds are added in 20.0 μl volume.
# The reaction is allowed to proceed in the dark for 120 min at room temperature, at which time, the bound ligand-receptor complex is filtered off on a 96 well unifilter with a Packard Filtermate® 196 Harvester. The bound complex caught on the filter disk is allowed to air dry and the radioactivity is measured in a Packard TopCount® equipped with six photomultiplier detectors, after the addition of 40.0 μl Microscint®-20 scintillant to each shallow well. The unifilter plate is heat-sealed and counted in a PackardTopCount® with a tritium efficiency of 31.0%.
# Binding in the presence of varying concentrations of test compound is expressed as a percentage of specific binding in the absence of test compound. The results are plotted as log % bound versus log concentration of test compound. […] A linear regression line of data points is plotted, from which the IC50 value is determined and the Ki value is determined based upon the following equation: […]
# where L is the concentration of the radioactive ligand used and KD is the dissociation constant of the ligand for the receptor, both expressed in nM.
# T1 sequence (P50406 whole entry): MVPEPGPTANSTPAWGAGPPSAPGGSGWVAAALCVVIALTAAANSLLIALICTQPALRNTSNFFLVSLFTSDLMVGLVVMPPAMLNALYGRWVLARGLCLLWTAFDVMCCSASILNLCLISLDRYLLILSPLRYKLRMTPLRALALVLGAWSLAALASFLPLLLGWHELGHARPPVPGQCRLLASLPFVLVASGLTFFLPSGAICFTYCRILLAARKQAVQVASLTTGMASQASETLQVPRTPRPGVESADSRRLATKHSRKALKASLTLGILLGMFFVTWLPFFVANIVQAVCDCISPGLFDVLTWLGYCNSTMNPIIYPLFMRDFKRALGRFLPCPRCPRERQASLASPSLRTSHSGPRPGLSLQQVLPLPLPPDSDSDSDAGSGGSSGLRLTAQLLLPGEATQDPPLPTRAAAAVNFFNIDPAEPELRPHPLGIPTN
row,Ki,Structure (SMILES)
1,9 nM,"O=S(=O)(Nc1ccc2c(c1)OC(CN1CCSCC1)CC2)c1ccccc1 (stereo not shown) [Example 26, N-[2-(thiomorpholin-4-ylmethyl)-3,4-dihydro-2H-chromen-7-yl]benzenesulfonamide]"
2,6 nM,"C[C@@H](NCC1CCc2ccc(NS(=O)(=O)c3ccc(C(F)(F)F)cc3)cc2O1)c1ccccc1 (stereo partly drawn) [Example 43, N-[2-({[(1R)-1-phenylethyl]amino}methyl)-3,4-dihydro-2H-chromen-7-yl]-4-(trifluoromethyl)benzenesulfonamide]"
3,7 nM,"CC(=O)Nc1nc(C)c(S(=O)(=O)Nc2ccc3c(c2)OC(CN[C@H](C)c2ccccc2)CC3)s1 (stereo partly drawn) [Example 35, N-[4-methyl-5-({[2-({[(1R)-1-phenylethyl]amino}methyl)-3,4-dihydro-2H-chromen-7-yl]amino}sulfonyl)-1,3-thiazol-2-yl]acetamide]"
4,5 nM,"O=S(=O)(Nc1ccc2c(c1)OC(CNCCCO)CC2)c1ccccc1 (stereo not shown) [Example 5, N-{2-[(3-Hydroxypropylamino)-methyl]chroman-7-yl}benzenesulfonamide Hemifumarate salt]"
5,17 nM,"C[C@@H](NC[C@@H]1CCc2ccc(NS(=O)(=O)c3ccccc3)cc2O1)c1ccccc1 [Example 45B, N[(2S)-2-({[(1R)-1-Phenylethyl]amino}methyl)-3,4-dihydro-2H-chromen-7-yl]phenylsulfonamide]"
6,11 nM,"O=S(=O)(Nc1ccc2c(c1)OC(CNCCCO)CC2)c1ccc(Cl)cc1 (stereo not shown) [Example 31, 4-chloro-N-(2-{[(3-hydroxypropyl)amino]methyl}-3,4-dihydro-2H-chromen-7-yl)benzenesulfonamide]"
7,7 nM,"C[C@@H](NCC1CCc2ccc(N(C)S(=O)(=O)c3ccc(F)cc3)cc2O1)c1ccccc1 (stereo partly drawn) [Example 52, 4-fluoro-N-methyl-N-[2-({[(1R)-1-phenylethyl]amino}methyl)-3,4-dihydro-2H-chromen-7-yl]benzenesulfonamide]"
8,3 nM,"C[C@@H](NCC1CCc2ccc(NS(=O)(=O)c3c(Cl)nc4sccn34)cc2O1)c1ccccc1 (stereo partly drawn) [Example 33, 6-chloro-N-[2-({[(1R)-1-phenylethyl]amino}methyl)-3,4-dihydro-2H-chromen-7-yl]imidazo[2,1-b][1,3]thiazole-5-sulfonamide]"
9,5 nM,"C[C@@H](NCC1CCc2ccc(NS(=O)(=O)c3ccc(Cl)cc3)cc2O1)c1ccccc1 (stereo partly drawn) [Example 38, 4-chloro-N-[2-({[(1R)-1-phenylethyl]amino}methyl)-3,4-dihydro-2H-chromen-7-yl]benzenesulfonamide]"
10,49 nM,"O=S(=O)(Nc1ccc2c(c1)OC(CNCCCO)CC2)c1ccc(F)cc1 (stereo not shown) [Example 30, 4-fluoro-N-(2-{[(3-hydroxypropyl)amino]methyl}-3,4-dihydro-2H-chromen-7-yl)benzenesulfonamide]"
11,5 nM,"C[C@@H](NCC1CCc2ccc(NS(=O)(=O)c3ccc(Br)s3)cc2O1)c1ccccc1 (stereo partly drawn) [Example 34, 5-bromo-N-[2-({[(1R)-1-phenylethyl]amino}methyl)-3,4-dihydro-2H-chromen-7-yl]-2-thiophenesulfonamide]"
12,4 nM,"C[C@@H](NCC1CCc2ccc(N(C)S(=O)(=O)c3ccc(N)cc3)cc2O1)c1ccccc1 (stereo partly drawn) [Example 56, 4-amino-N-methyl-N-[2-({[(1R)-1-phenylethyl]amino}methyl)-3,4-dihydro-2H-chromen-7-yl]benzenesulfonamide]"
13,3 nM,"C[C@@H](NCC1CCc2ccc(N(C)S(=O)(=O)c3ccccc3Br)cc2O1)c1ccccc1 (stereo partly drawn) [Example 51, 2-bromo-N-methyl-N-[2-({[(1R)-1-phenylethyl]amino}methyl)-3,4-dihydro-2H-chromen-7-yl]benzenesulfonamide]"
14,16 nM,"CC(C)NCC1CCc2ccc(NS(=O)(=O)c3ccccc3)cc2O1 (stereo not shown) [Example 19, N-{2-[(isopropylamino)methyl]-3,4-dihydro-2H-chromen-7-yl}benzenesulfonamide]"
15,10 nM,"C[C@H](NCC1CCc2ccc(NS(=O)(=O)c3ccccc3)cc2O1)c1ccccc1 (stereo partly drawn) [Example 14, N-[2-({[(1S)-1-phenylethyl]amino}methyl)-3,4-dihydro-2H-chromen-7-yl]benzenesulfonamide]"
16,1 nM,"C[C@@H](NCC1CCc2ccc(NS(=O)(=O)c3ccccc3)cc2O1)c1ccccc1 (stereo partly drawn) [Example 10, N-[2-({[(1R)-1-phenylethyl]amino}methyl)-3,4-dihydro-2H-chromen-7-yl]benzenesulfonamide]"
17,26 nM,"O=S(=O)(Nc1ccc2c(c1)OC(CN1CCOCC1)CC2)c1ccccc1 (stereo not shown) [Example 25, N-[2-(morpholin-4-ylmethyl)-3,4-dihydro-2H-chromen-7-yl]benzenesulfonamide]"
18,5 nM,"O=S(=O)(Nc1ccc2c(c1)OC(CNCc1cccnc1)CC2)c1ccccc1 (stereo not shown) [Example 12, N-(2-{[(pyridin-3-ylmethyl)amino]methyl}-3,4-dihydro-2H-chromen-7-yl)benzenesulfonamide]"
19,39 nM,"COc1ccc(S(=O)(=O)Nc2ccc3c(c2)OC(CNCCCO)CC3)cc1 (stereo not shown) [Example 29, N-(2-{[(3-hydroxypropyl)amino]methyl}-3,4-dihydro-2H-chromen-7-yl)-4-methoxybenzenesulfonamide]"
20,1 nM,C[C@@H](NC[C@H]1CCc2ccc(NS(=O)(=O)c3ccccc3)cc2O1)c1ccccc1 [Example 45A]
21,41 nM,"CC(C)(CO)NCC1CCc2ccc(NS(=O)(=O)c3ccccc3)cc2O1 (stereo not shown) [Example 18, N-(2-{[(2-hydroxy-1,1-dimethylethyl)amino]methyl}-3,4-dihydro-2H-chromen-7-yl)benzenesulfonamide]"
22,37 nM,"C[C@@H](NC[C@H]1CCc2ccc(NS(=O)(=O)c3cccc4ccccc34)cc2O1)c1ccccc1 [Example 46A, N-[(2R)-2-({[(1R)-1-phenylethyl]amino}-methyl)-3,4-dihydro-2H-chromen-7-yl)naphthalene-1-sulfonamide Hydrochloride]"
23,72 nM,"CC1CCCC(C)N1CC1CCc2ccc(NS(=O)(=O)c3ccccc3)cc2O1 (stereo not shown) [Example 24, N-{2-[(2,6-dimethylpiperidin-1-yl)methyl]-3,4-dihydro-2H-chromen-7-yl}benzenesulfonamide]"
24,10 nM,"COc1ccc(S(=O)(=O)Nc2ccc3c(c2)OC(CN[C@H](C)c2ccccc2)CC3)cc1 (stereo partly drawn) [Example 39, 4-methoxy-N-[2-({[(1R)-1-phenylethyl]amino}methyl)-3,4-dihydro-2H-chromen-7-yl]benzenesulfonamide]"
25,11 nM,"C[C@@H](NC[C@@H]1CCc2ccc(NS(=O)(=O)c3ccc(N)cc3)cc2O1)c1ccccc1 [Example 47B, 4-Amino-N-[(2S)-2-({[(1R)-1-phenylethyl]amino}methyl)-3,4-dihydro-2H-chromen-7-yl]benezenesulfonamide Hydrochloride]"
26,2 nM,"O=S(=O)(Nc1ccc2c(c1)OC(CNCc1ccc3c(c1)OCO3)CC2)c1ccccc1 (stereo not shown) [Example 11, N-(2-{[(1,3-benzodioxol-5-ylmethyl)amino]methyl}-3,4-dihydro-2H-chromen-7-yl)benzenesulfonamide]"
27,2 nM,"O=S(=O)(Nc1ccc2c(c1)OC(CNCc1ccccc1)CC2)c1ccccc1 (stereo not shown) [Example 8, N-{2-[(benzylamino)methyl]-3,4-dihydro-2H-chromen-7-yl}benzenesulfonamide]"

row,Structure (SMILES),Ki
1,"CCCCOCCCNCC1CCc2ccc(NS(=O)(=O)c3ccccc3)cc2O1 (stereo not shown) [Example 7, N-(2-{[(3-butoxypropyl)amino]methyl}-3,4-dihydro-2H-chromen-7-yl)benzenesulfonamide]",2 nM
